Measurements: patent US8153651B2, “Amide derivatives as ion-channel ligands and pharmaceutical compositions and methods of using the same” (Evotec AG, priority 2007, dated 2012)
Like-named read-outs stand apart in the source and are kept apart here. Values belong to the compound of their own block, whether it stands above or below them.

Target: T1, hVR1 (Homo sapiens, UniProt Q8NER1)
T1 construct: expressed in transfected cells; host or cells: T-REx System cell line (Invitrogen Cat# R710-07), called 'human keratinocyte cell line' and 'HEK 293 cells'; vector pcDNA5/TO (Invitrogen Cat# V1033-20); expression induced with doxycycline
Test: Calcium uptake assay (FLIPR), inhibition of agonist-induced calcium influx in cells expressing hVR1
Type: cell-based
Conditions: cells expressing human VR1, 2 or 30 min pre-incubation
Experimental: The syntheses of these representative compounds were carried out in accordance with the methods set forth above, and activity of the compounds was measured by percent inhibition in a calcium uptake assay, the details of which are described below.
Functional activity of compounds against the VR1 receptor was determined by measuring changes in intracellular calcium in HEK 293 cells expressing hVR1. Compounds were examined for their ability to inhibit agonist-induced calcium influx. Relative levels of [Ca^2+] were monitored in a 96-well format using a calcium-sensitive fluorescence dye and a FLIPR TETRA, Molecular Devices.
Cells that express high levels of VR1 were obtained by generation of a cell line from human keratinocytes with heterologous expression of VR1 under control of an inducible promoter. Specifically, cells expressing human VR1 under the control of the human cytomegalovirus immediate-early (CMV) promoter and two tetracycline operator 2 (TetO2) sites were made using the T-REx System (Invitrogen, Carlsbad, Calif., USA). Details and methods concerning this system are published (Hum. Gene Ther. 9, pp. 1939-1950, 1998; Annu. Rev. Microbiol. 48, pp. 345-369, 1994; Mol. Biol. 169, pp. 707-721, 1983). Human VR1 was subcloned into the T-REx System pcDNA5/TO vector (Invitrogen Cat# V1033-20) which was transfected into the T-REx System human keratinocyte cell line (Invitrogen Cat# R710-07) from which a stable cell line was established which expresses VR1 after induction by exposure to tetracycline or doxycycline (Hum. Gene Ther. 9, pp. 1939-1950, 1998; instructions that come with purchase of products noted above). Cells were maintained in a CO2 incubator (5% CO2) at 37° C. in culture medium containing DMEM with phenol red (Mediatech Cat #: 15-017-CV) supplemented with 10% heat-inactivated Fetal Bovine Serum, 5% Penicillin-streptomycin (Mediatech Cat #: 30-002-CI), 5% Glutamax® (L-Alanyl-L-Glutamine, Mediateach Cat #: 25-015-CI), 200 μg/ml hygromycin (Mediatech #:30-240-CR), 0.5 μg/ml blasticidin (Invitrogen #46-1120)).
For assay preparation, cells expressing human VR1 as described above were plated in 96-well plates (Becton Dickinson [BD] poly-D-lysine coated 96-well plates, cat#356692) at 55,000 cells per well in culture media (described above) that also contained 1 ug/ml doxycycline. Plated cells were then placed in an incubator (5% CO2) and incubated for 20-26 hours at 37° C., until the cells had grown to near confluency. Media was then aspirated from cells and 50 uL of dye-containing buffer (from Molecular Devices FLIPR Calcuim 4 Assay kit, cat# R8141) was added to each well. Cells were then left in the dark at room temperature for 1.5-2 hours. Cell plates were then placed in the FLIPR TETRA (Molecular Devices, CA, USA). Test compounds and agonists were added to wells using the liquid handling capability of the FLIPR TETRA. Calcuim responses of the cells were monitored by fluorescence readout of dye signal. Test compounds in saline (130 mM NaCl, 17 g/L sucrose, 1.8 g/L glucose, 8.8 mM HEPES, 3 mM KCl, 0.60 mM MgCl, 1.0 mM CaCl2; adjust to pH 7.4 using NaOH; 0.03% BSA added on the day of the experiment), or vehicle control in saline, were pre-incubated at the desired final concentrations in the dark at room temperature for 2 or 30 minutes with cells already containing the above mentioned dye buffer (dye solution was diluted 1:1 in culture wells with saline containing 2× the final concentration of test compound). […] Another agonist was protons via a low pH solution (saline solution described above plus 10 mM citric acid buffered to pH 5.7 with HCl instead of buffering to a neutral pH with NaOH as done for normal saline). Compounds were tested at various concentration ranges, depending upon potency of compound.

[1] = IC50 (nM) Capsaicin, agonist capsaicin at 10 nM or its EC50
[2] = agonist protons, low pH solution pH 5.7, read-out: IC50 (nM) Low pH
[3] = read-out: IC50 (nM) Capsaicin, agonist capsaicin at 10 nM or its EC50

T1 sequence (Q8NER1 whole entry): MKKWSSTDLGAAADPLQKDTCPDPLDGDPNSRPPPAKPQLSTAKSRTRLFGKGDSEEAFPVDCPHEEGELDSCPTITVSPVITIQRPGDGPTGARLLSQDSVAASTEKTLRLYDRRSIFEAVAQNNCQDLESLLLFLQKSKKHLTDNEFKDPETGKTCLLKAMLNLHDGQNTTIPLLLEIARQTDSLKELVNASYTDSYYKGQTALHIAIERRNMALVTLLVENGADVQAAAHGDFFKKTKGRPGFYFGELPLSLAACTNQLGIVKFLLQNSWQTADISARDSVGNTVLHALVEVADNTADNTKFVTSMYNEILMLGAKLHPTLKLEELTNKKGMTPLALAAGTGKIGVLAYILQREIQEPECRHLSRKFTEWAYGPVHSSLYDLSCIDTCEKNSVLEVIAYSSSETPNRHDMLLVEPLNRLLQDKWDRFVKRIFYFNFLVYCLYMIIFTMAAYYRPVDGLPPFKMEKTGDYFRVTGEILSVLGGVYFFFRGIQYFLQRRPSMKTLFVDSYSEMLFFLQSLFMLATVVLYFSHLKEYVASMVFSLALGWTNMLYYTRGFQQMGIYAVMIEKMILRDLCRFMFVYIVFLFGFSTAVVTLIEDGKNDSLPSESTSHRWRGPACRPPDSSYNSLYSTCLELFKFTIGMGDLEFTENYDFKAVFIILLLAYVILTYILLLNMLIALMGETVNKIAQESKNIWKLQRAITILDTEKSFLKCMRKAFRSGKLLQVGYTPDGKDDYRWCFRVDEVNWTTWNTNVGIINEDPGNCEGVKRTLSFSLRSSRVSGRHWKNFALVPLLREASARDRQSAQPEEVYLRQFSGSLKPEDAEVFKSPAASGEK

Compound: Cc1cc([C@@H](C)NC(=O)[C@H]2COc3ccc(C(F)(F)F)cc3O2)c(F)cc1NS(C)(=O)=O [Example 17, (R)—N—((R)-1-(2-fluoro-5-methyl-4-(methylsulfonamido)phenyl)ethyl)-7-(trifluoromethyl)-2,3-dihydrobenzo[b][1,4]dioxine-2-carboxamide]
IC50 [1]: < 100 nM

Compound: Cc1cc([C@@H](C)NC(=O)[C@H]2CCc3nc(C4(C)OCCO4)ccc3C2)c(F)cc1NS(C)(=O)=O [Example 20, (S)—N—((R)-1-(2-fluoro-5-methyl-4-(methylsulfonamido)phenyl)ethyl)-2-(2-methyl-1,3-dioxolan-2-yl)-5,6,7,8-tetrahydroquinoline-6-carboxamide]
IC50 [1]: 101 to 500 nM

Compound: Cc1cc([C@@H](C)NC(=O)C2CCc3nc(C(F)(F)F)ccc3C2)c(F)cc1NS(C)(=O)=O (stereo partly drawn) [Example 12, N—((R)-1-(2-Fluoro-5-methyl-4-(methylsulfonamido)phenyl)ethyl)-2-(trifluoromethyl)-5,6,7,8-tetrahydroquinoline-6-carboxamide]
IC50 [1]: < 100 nM

Compound: COc1ccc2c(c1)CCC(C(=O)NC(C)c1cc(C)c(NS(C)(=O)=O)cc1F)C2 (centres unmarked) [Example 11, 6-Methoxy-1,2,3,4-tetrahydro-naphthalene-2-carboxylic acid [1-(2-fluoro-4-methanesulfonylamino-5-methyl-phenyl)-ethyl]-amide]
IC50 [1]: 101 to 500 nM

Compound: Cc1cc([C@@H](C)NC(=O)C2CCc3ccccc3C2)c(F)cc1NS(C)(=O)=O (some centres unmarked) [Example 3, 1,2,3,4-Tetrahydronaphthalene-2-carboxylic acid f(r)-1-(2-fluoro-4-methanesulfonylamino-5-methylphenyl)ethylamide]
IC50 [1]: < 100 nM
IC50 [2]: 101 to 500 nM

Compound: Cc1cc([C@@H](C)NC(=O)C2COc3nc(C(F)(F)F)ccc3O2)c(F)cc1NS(C)(=O)=O (stereo partly drawn) [Example 21, 6-trifluoromethyl-2,3-dihydro[1,4]dioxino[2,3-b]pyridine-2-carboxylic acid [(R)-1-(2-fluoro-4-methanesulfonylamino-5-methylphenyl)ethyl]amide]
IC50 [1]: 101 to 500 nM

Compound: Cc1cc([C@@H](C)NC(=O)C2CCc3ccccc3O2)c(F)cc1NS(C)(=O)=O (some centres unmarked) [Example 2]
IC50 [1]: 101 to 500 nM
IC50 [2]: > 1000 nM

Compound: C[C@@H](NC(=O)[C@H]1COc2cc(C(F)(F)F)ccc2O1)c1ccc(NS(C)(=O)=O)c(Cl)c1 [Example 23]
IC50 [1]: < 100 nM

Compound: Cc1cc([C@@H](C)NC(=O)C2CCc3nc(C(C)(C)C(F)(F)F)ccc3C2)c(F)cc1NS(C)(=O)=O (stereo partly drawn) [Example 8, N—((R)-1-(2-Fluoro-5-methyl-4-(methylsulfonamido)phenyl)ethyl)-2-(1,1,1-trifluoro-2-methylpropan-2-yl)-5,6,7,8-tetrahydroquinoline-6-carboxamide]
IC50 [1]: < 100 nM

Compound: Cc1cc([C@@H](C)NC(=O)C2CN(C)c3cc(C(F)(F)F)ccc3O2)c(F)cc1NS(C)(=O)=O (some centres unmarked) [Example 7]
IC50 [1]: < 100 nM
IC50 [2]: < 100 nM

Compound: Cc1cc([C@@H](C)NC(=O)C2=Cc3ccccc3OC2)c(F)cc1NS(C)(=O)=O [Example 1, (R)—N-(1-(2-Fluoro-5-methyl-4-(methylsulfonamido)phenyl)ethyl)-2h-chromene-3-carboxamide]
IC50 [1]: < 100 nM
IC50 [2]: 101 to 500 nM

Compound: (R)—N—((R)-1-(2-fluoro-5-methyl-4-(methylsulfonamido)phenyl)ethyl)-6-(trifluoromethyl)-2,3-dihydrobenzo[b][1,4]dioxine-2-carboxamide [Example 18]
IC50 [3]: < 100 nM

The remaining lines, values ahead:

IC50 [1]: 101 to 500 nM
IC50 [2]: 101 to 500 nM
Compound: COC(C)(C)c1ccc2c(n1)CC[C@@H](C(=O)N[C@H](C)c1cc(C)c(NS(C)(=O)=O)cc1F)C2 (single isomer, unassigned) [Example 14]

IC50 [3]: < 100 nM
Compound: Cc1cc([C@@H](C)NC(=O)[C@H]2CCc3nc(C(C)(C)C(F)(F)F)ccc3C2)c(F)cc1NS(C)(=O)=O [Example 10, (S)—N—((R)-1-(2-Fluoro-5-methyl-4-(methylsulfonamido)phenyl)ethyl)-2-(1,1,1-trifluoro-2-methylpropan-2-yl)-5,6,7,8-tetrahydroquinoline-6-carboxamide]

IC50 [1]: 101 to 500 nM
Compound: Cc1cc([C@@H](C)NC(=O)[C@@H]2COc3ccc(C(F)(F)F)cc3O2)c(F)cc1NS(C)(=O)=O [Example 19, (S)—N—((R)-1-(2-fluoro-5-methyl-4-(methylsulfonamido)phenyl)ethyl)-7-(trifluoromethyl)-2,3-dihydrobenzo[b][1,4]dioxine-2-carboxamide]

IC50 [1]: 101 to 500 nM
Compound: Cc1cc([C@@H](C)NC(=O)[C@@H]2COc3cc(C(F)(F)F)ccc3O2)c(F)cc1NS(C)(=O)=O [Example 16, (S)—N—((R)-1-(2-fluoro-5-methyl-4-(methylsulfonamido)phenyl)ethyl)-6-(trifluoromethyl)-2,3-dihydrobenzo[b][1,4]dioxine-2-carboxamide]

IC50 [1]: 101 to 500 nM
Compound: Cc1cc([C@@H](C)NC(=O)C2CCc3nc(C(C)(C)O)ccc3C2)c(F)cc1NS(C)(=O)=O (stereo partly drawn) [Example 13, N—((R)-1-(2-fluoro-5-methyl-4-(methylsulfonamido)phenyl)ethyl)-2-(2-hydroxypropan-2-yl)-5,6,7,8-tetrahydroquinoline-6-carboxamide]

IC50 [1]: < 100 nM
Compound: C[C@@H](NC(=O)[C@H]1COc2cc(C(F)(F)F)ccc2O1)c1ccc(NS(C)(=O)=O)c(F)c1 [Example 22, (R)-6-Trifluoromethyl-2,3-dihydrobenzo[1,4]dioxine-2-carboxylic acid [(R)-1-(3-fluoro-4-methanesulfonylaminophenyl)ethyl]amide]

IC50 [1]: < 100 nM
IC50 [2]: < 100 nM
Compound: COC(C)(C)c1ccc2c(n1)CC[C@H](C(=O)N[C@H](C)c1cc(C)c(NS(C)(=O)=O)cc1F)C2 (single isomer, unassigned) [Example 15]

IC50 [1]: < 100 nM
IC50 [2]: < 100 nM
Compound: Cc1cc([C@@H](C)NC(=O)C2=Cc3cc(Cl)ccc3OC2)c(F)cc1NS(C)(=O)=O [Example 4]

IC50 [2]: < 100 nM
Compound: Cc1cc([C@@H](C)NC(=O)[C@@H]2CCc3nc(C(C)(C)C(F)(F)F)ccc3C2)c(F)cc1NS(C)(=O)=O [Example 9, (R)—N—((R)-1-(2-Fluoro-5-methyl-4-(methylsulfonamido)phenyl)ethyl)-2-(1,1,1-trifluoro-2-methylpropan-2-yl)-5,6,7,8-tetrahydroquinoline-6-carboxamide]

IC50 [1]: 101 to 500 nM
IC50 [2]: > 1000 nM
Compound: COc1ccc2c(c1)CCC(C(=O)N[C@H](C)c1cc(C)c(NS(C)(=O)=O)cc1F)C2C (some centres unmarked) [Example 5]

IC50 [1]: < 100 nM
IC50 [2]: < 100 nM
Compound: Cc1cc([C@@H](C)NC(=O)C2COc3ccc(Cl)cc3C2)c(F)cc1NS(C)(=O)=O (some centres unmarked) [Example 6]
